Measured values: patent US20230295212A1 (ROME Therapeutics, Inc., priority 2022, published 2023)

Test system: THP1 Dual TREX1 KO cells
Assay: THP1 TREX1 KO inhibition assay, combination dosing (stampidine and Compound 2)
Type: cell-based
Conditions: combination of stampidine and Compound 2; k>0 denotes synergy
Method: Exemplary compounds were tested to determine the effect of combined dosing of two compounds on the type 1 interferon response in THP1 Dual TREX1 KO cells treated with 5-aza-2′-deoxycytidine. Assay procedures and results are described below.
THP1 Dual TREX1 KO cells were purchased from InvivoGen. The THP1-Dual™ KO-TREX1 cells were cultured in RPMI 1640, 10% heat-inactivated fetal bovine serum, 25 mM HEPES, 10 μg/mL blasticidin, and 100 μg/mL Zeocin. THP1-Dual™ KO-TREX1 cells were treated with a dose titration of test compound in the presence of 1 μM 5-aza-2′-deoxycytidine (Sigma, cat #189825). Type 1 Interferon and cell viability were assessed after five days of treatment.
Stock solution of test compounds stampidine and Compound 2 were prepared in DMSO followed by a three-fold dilution in DMSO. […]
THP1-Dual™ KO-TREX1 cells were treated with 1 μM 5-aza-2′-deoxycytidine. […] Luminescence was detected on a plate reader according to manufacturer's instructions. […]
The remaining cells were assessed for cell viability by adding 30 μl of CellTiter-Glo (Promega, G9683) solution to each well, and placed on a shaker for 10 minutes at room temperature. Luminescence was detected on a plate reader, according to manufacturer's instructions. […]

SMILES: Nc1ccn([C@H]2C[C@H](O)[C@](CO)(CCl)O2)c(=O)n1 [Compound 2, 4-amino-1-((2R,4S,5R)-5-(chloromethyl)-4-hydroxy-5-(hydroxymethyl)tetrahydrofuran-2-yl)pyrimidin-2(1H)-one]
- best BRAID fit k: 2.00 (0.583-3.64)
